Assay results taken from PMC2033546, “Effects of somatostatin analogue RC-160 and bombesin/gastrin-releasing peptide antagonists on the growth of human small-cell and non-small-cell lung carcinomas in nude mice” (British Journal of Cancer, 1994).
Where no end group is shown, it is not given here. [ ]: non-standard residue; d: D form.

Columns and labels:
[1] = test system: non-SCLC cell line NCI-H157; assay: Growth of H157 non-SCLC xenografts in nude mice; format: in vivo, human (xenograft in male athymic nude mice); details: RC-160 100 µg/day, RC-3095 20 µg/day
Description: (§1) Br. J. Cancer (1994). 70, 886 892 ? Macmillan Press Ltd.. […] Bombesin GRP antagonists. […] Lung carcinoma is the leading cause of cancer-related deaths in the western world. It is estimated that in 1992 there were approximately 168,000 new cases of lung cancer in the US and that about 146,000 deaths occurred from this disease (Boring et al., 1992). […] The growth factors such as bombesin/gastrin-releasing pep- tide (GRP), epidermal growth factor, (EGF), transforming growth factor a (TGF-x) and insulin-like growth factor I(IGF-I) appear to play a role in the proliferation and pro- gression of lung cancer (Cuttitta et al., 1985; Veale et al., 1987; Minuto et al., 1988; Siegfried & Owens, 1988; Macaulay et al., 1990; Tateishi et al., 1991; Damstrup et al., 1992; Sethi & Rozengurt, 1992; Rabiasz et al., 1992; Moody & Cuttitta, 1993). […] Tpi is 2,3,4,9-tetrahydro- Correspondence: A.V. Schally (151). VA Medical Center, 1601 Per- dido Street. New Orleans, LA 70146. USA. Received 1 March 1994; and in revised form 5 July 1994. Br. J. Cancer (1994), 70, 886-892 C Macmillan Press Ltd., 1994 PEPTIDE ANALOGUES IN LUNG CANCER 8U7 lH-pyrido [3,4bjindol-3-carboxylic acid, a conformationally constrained secondary amine derivate of tryptophan and Tac is thiazolidine-4-carboxylic acid. […] Animals Male athymic NCr nulmu nude mice, approximately 6 weeks old on arrival, were obtained from the NCI (Bethesda, MD, USA) and maintained under pathogen-limited conditions. Cell lines The human SCLC cell line NCI-H69, was obtained from the American Type Cell Culture (ATCC), Rockville, MD, USA and the non-SCLC cell line NCI-H157, from Dr H. Oie, NCI-Navy Medical Oncology Branch, Bethesda, MD, USA. These cell lines were cultured in RPMI-1640 medium supple- mented with 4 mM L-glutamine, 50 units ml-I penicilln G sodium, SOigml-' streptomycin sulphate, 0.125pgml-' amphotericin B and 10% fetal bovine serum at 3TC in a humidified 95% air/5% carbon dioxide atmosphere. CeLs were passaged weekly and routinely monitored for myco- plasma contamination using a detection kit (Boehringer- Mannheim, Mannheim, Germany). All culture media com- ponents were purchased from Gibco (Grand Island, NY, USA). Receptor assays Preparation of membranes for receptor studies was described previously (Halmos et al., 1993). Iodinated EGF and IGF-I were purchased from Amersham (Arlington Heights, IL, USA). Radioiodination of other peptides and receptor bind- ing of EGF, IGF-I, somatostatin and bombesin/GRP were performed as previously described (Srkalovic et al., 1989; Szepeshazi et al., 1992). Complete displacement assays on tumour membranes were done only once because of the shortage of tumour material. The LIGAND PC computerised curve-fitting programme of Munson and Rodbard (1980) was used to determine the types of receptor binding, dissociation constant (Kd) values, and the maximal binding capacity (BDj) of receptors. In order to determine the specificity of the binding sites for radiolabelled EGF, IGF-I, somatostatin and bombesin to lung cancer membranes, various structuraly related and unrelated peptides were tested for their ability to inhibit the binding of the tracers. Histological procedure The histological procedures were the same as described previously (Szepeshazi et al., 1991, 1992). The number of mitotic and apoptotic cells per 1,000 cells was determined, and the percentage area of necrosis in tumour sections was examined using the point-counting method (Szepeshazi et al., 1991, 1992), in which the crossing points of an ocular net that coincide with necrosis in various sections are counted. Radiommunoassays Serum levels of growth hormone were determined by double- antibody radioimmunoassay (RIA) using materials supplied by the National Hormone and Pituitary Program of the National Institute of Diabetes and Digestive and Kidney Diseases (NIDDK).

SCLC H69 tumours = assay: Histology (mitosis, apoptosis, necrosis) of SCLC H69 tumours; format: in vivo, human (xenograft in nude mice); details: Table II, Experiment I (SCLC H69); control 0.96 ? 0.1; means ? s.e.; *P < 0.05 vs control
Description: as §1

[2] = Serum growth hormone (GH) radioimmunoassay in nude mice; format: in vivo
Description: Br. J. Cancer (1994). 70, 886 892 ? Macmillan Press Ltd.. […] Bombesin GRP antagonists. […] Lung carcinoma is the leading cause of cancer-related deaths in the western world. It is estimated that in 1992 there were approximately 168,000 new cases of lung cancer in the US and that about 146,000 deaths occurred from this disease (Boring et al., 1992). […] CeLs were passaged weekly and routinely monitored for myco- plasma contamination using a detection kit (Boehringer- Mannheim, Mannheim, Germany). […] The number of mitotic and apoptotic cells per 1,000 cells was determined, and the percentage area of necrosis in tumour sections was examined using the point-counting method (Szepeshazi et al., 1991, 1992), in which the crossing points of an ocular net that coincide with necrosis in various sections are counted. Radiommunoassays Serum levels of growth hormone were determined by double- antibody radioimmunoassay (RIA) using materials supplied by the National Hormone and Pituitary Program of the National Institute of Diabetes and Digestive and Kidney Diseases (NIDDK).

[3] = test system: EGF receptors in membranes of non-SCLC H157 tumours; assay: EGF receptor binding on H157 tumour membranes after in vivo treatment; design: species or system human
Description: as §1, with “Receptor assays Preparation of membranes for receptor studies was described previously (Halmos et al., 1993). Iodinated EGF and IGF-I were purchased from Amersham (Arlington Heights, IL, USA). Radioiodination of other peptides and receptor bind- ing of EGF, IGF-I, somatostatin and bombesin/GRP were performed as previously described (Srkalovic et al., 1989; Szepeshazi et al., 1992). Complete displacement assays on tumour membranes were done only once because of the shortage of tumour material. The LIGAND PC computerised curve-fitting programme of Munson and Rodbard (1980) was used to determine the types of receptor binding, dissociation constant (Kd) values, and the maximal binding capacity (BDj) of receptors. In order to determine the specificity of the binding sites for radiolabelled EGF, IGF-I, somatostatin and bombesin to lung cancer membranes, various structuraly related and unrelated peptides were tested for their ability to inhibit the binding of the tracers. Histological procedure The histological procedures were the same as described previously (Szepeshazi et al., 1991, 1992).” left out

[4] = test system: IGF-I receptors in membranes of SCLC H69 tumours; assay: IGF-I receptor binding on H69 tumour membranes after in vivo treatment; design: species or system human; details: Table IV, Experiment I (SCLC-H69), control 294, done once
Description: as §1, with “Receptor assays Preparation of membranes for receptor studies was described previously (Halmos et al., 1993). Iodinated EGF and IGF-I were purchased from Amersham (Arlington Heights, IL, USA). Radioiodination of other peptides and receptor bind- ing of EGF, IGF-I, somatostatin and bombesin/GRP were performed as previously described (Srkalovic et al., 1989; Szepeshazi et al., 1992). Complete displacement assays on tumour membranes were done only once because of the shortage of tumour material. The LIGAND PC computerised curve-fitting programme of Munson and Rodbard (1980) was used to determine the types of receptor binding, dissociation constant (Kd) values, and the maximal binding capacity (BDj) of receptors. In order to determine the specificity of the binding sites for radiolabelled EGF, IGF-I, somatostatin and bombesin to lung cancer membranes, various structuraly related and unrelated peptides were tested for their ability to inhibit the binding of the tracers. Histological procedure The histological procedures were the same as described previously (Szepeshazi et al., 1991, 1992).” left out

[5] = test system: IGF-I receptors in membranes of non-SCLC H157 tumours; assay: IGF-I receptor binding on H157 tumour membranes after in vivo treatment; design: species or system human
Description: as §1, with “Receptor assays Preparation of membranes for receptor studies was described previously (Halmos et al., 1993). Iodinated EGF and IGF-I were purchased from Amersham (Arlington Heights, IL, USA). Radioiodination of other peptides and receptor bind- ing of EGF, IGF-I, somatostatin and bombesin/GRP were performed as previously described (Srkalovic et al., 1989; Szepeshazi et al., 1992). Complete displacement assays on tumour membranes were done only once because of the shortage of tumour material. The LIGAND PC computerised curve-fitting programme of Munson and Rodbard (1980) was used to determine the types of receptor binding, dissociation constant (Kd) values, and the maximal binding capacity (BDj) of receptors. In order to determine the specificity of the binding sites for radiolabelled EGF, IGF-I, somatostatin and bombesin to lung cancer membranes, various structuraly related and unrelated peptides were tested for their ability to inhibit the binding of the tracers. Histological procedure The histological procedures were the same as described previously (Szepeshazi et al., 1991, 1992).” left out

[6] = test system: Bombesin/GRP receptors in membranes of SCLC H69 tumours; assay: Bombesin/GRP receptor binding on H69 tumour membranes after in vivo treatment; design: species or system human; details: Table IV, Experiment I (SCLC-H69); tumour membranes after in vivo treatment; control 420; done once
Description: as §1, with “In order to determine the specificity of the binding sites for radiolabelled EGF, IGF-I, somatostatin and bombesin to lung cancer membranes, various structuraly related and unrelated peptides were tested for their ability to inhibit the binding of the tracers. Histological procedure The histological procedures were the same as described previously (Szepeshazi et al., 1991, 1992).” left out

[7] = test system: Somatostatin receptors in membranes of SCLC H69 tumours; assay: Somatostatin receptor binding on H69 tumour membranes after in vivo treatment; design: species or system human
Description: as §1, with “In order to determine the specificity of the binding sites for radiolabelled EGF, IGF-I, somatostatin and bombesin to lung cancer membranes, various structuraly related and unrelated peptides were tested for their ability to inhibit the binding of the tracers. Histological procedure The histological procedures were the same as described previously (Szepeshazi et al., 1991, 1992).” left out

human SCLC cell line H69 = assay: [3H]Thymidine incorporation assay in H69 cells; format: cell-based; details: for [3H]Thymidine incorporation: Table V, mean s.e.
Description: as §1

[8] = test system: LNCaP prostatic cancer cells; details: LNCaP cells in culture; ref Gattani et al., 1990; cited from earlier work
Description: (§2) Br. J. Cancer (1994). 70, 886 892 ? Macmillan Press Ltd..

[9] = test system: MIA PaCa-2 human pancreatic cancer cell line; details: ref Liebow et al., 1989; cited from earlier work
Description: as §2

[dF]CY[dW]KVCW-NH2 (cysteine pairing not given here) [RC-160, Somatostatin analogue RC-160]
Growth of H157 non-SCLC tumours (in words) ([1]; 4 weeks s.c., SB-75 100 µg/day per animal, vs control): significantly reduced | Tumour volume, final ([1]; Table I, Experiment II (non-SCLC H157), 4 weeks s.c. peritumoral, SB-75 100 µg/day per animal, control 1580.3 ? 455.7, means ? s.d., ten animals per group, *P<0.05 vs control): 291.0 207.8* (mm)r | Tumour weight ([1]; Table I, Experiment II (non-SCLC H157), 4 weeks s.c., SB-75 100 µg/day, control 1.9 ? 0.3, means ? s.d., *P<0.05 vs control): 0.64 0.3* g | Tumour doubling time ([1]; Table I, Experiment II (non-SCLC H157), 4 weeks s.c., SB-75 100 µg/day, control 3.88): 6.06 days | Ratio of apoptotic to mitotic indices (SCLC H69 tumours): 2.27 ± 0.5* | Serum GH levels (in words) ([2]; both experiments, after chronic treatment, vs controls): significantly decreased serum growth hormone and gastrin levels | Decrease in serum GH levels ([2]; mice treated with RC-160 as compared with control mice): about 48% | EGF maximal binding capacity (Bmax) ([3]; Table IV, Experiment II (non-SCLC H157), tumour membranes after in vivo treatment, control 249, done once): 100 fmol mg' protein | EGF binding capacity on H157 tumours (in words) ([3]; after in vivo treatment): decreased | IGF-I maximal binding capacity (Bmax) [4]: 176 fmol mg' protein | IGF-I maximal binding capacity (Bmax) ([5]; Table IV, Experiment II (non-SCLC H157), tumour membranes after in vivo treatment, control 257, done once): 129 fmol mg' protein | IGF-I binding sites on H157 tumours (in words) ([5]; after in vivo treatment): decreased | Bombesin/GRP maximal binding capacity (Bmax) [6]: 435 fmol mg-'protein | Somatostatin maximal binding capacity (Bmax) ([7]; Table IV, Experiment I (SCLC-H69), tumour membranes after in vivo treatment, control 450, done once): 570 fmol mg-'protein | Binding capacity of receptors for somatostatin on H69 tumours (in words) ([7]; after in vivo treatment): increased the binding capacity of receptors for somatostatin | Suppression of DNA synthesis (human SCLC cell line H69; "At 0.0 ILg ml-'" RC-160, 5 days of incubation, H69 cells): about 43% | [3H]thymidine incorporation into DNA of H69 cells (in words) (human SCLC cell line H69; RC-160 0.001 to 10.0 µg/ml, 5 days, RC-3005 or RC-3009 5.0 and 25.0 µg/ml, 3 days): significantly inhibited | [3H]Thymidine incorporation (human SCLC cell line H69; 0.001 µg/ml, 5 days, *P<0.05 vs control): 81.6 4.6* per cent of control | [3H]Thymidine incorporation (human SCLC cell line H69; 0.01 µg/ml, 5 days, *P<0.05 vs control): 80.0 4.1* per cent of control | [3H]Thymidine incorporation (human SCLC cell line H69; 0.1 µg/ml, 5 days, **P<0.01 vs control): 71.6 ± 3.4** per cent of control | Effect on [3H]thymidine incorporation (in words) [8]: inhibitory effect | Effect on EGF-stimulated cell growth (in words) [9]: reversed the stimulatory effect of EGF | Effect on EGF-stimulated phosphorylation of the tyrosine kinase domain of the EGF receptors (in words) [9]: reversed the stimulatory effect of EGF
